Source: ChEMBL document CHEMBL6092159, “Design, synthesis, and biological evaluation of novel iNOS inhibitors as potent neuroprotective agents for ischemic stroke” (Eur J Med Chem, 2024)
≈ marks a conversion by molar mass, not a printed value. Calls of active or inactive are those of the source. The calls are words filed in the database; no cut-off is given here.

Tests used:
SH-SY5Y [1] = test: Neuroprotective effect in human SH-SY5Y cells assessed as reduction in OGD/R-induced damage by measuring increase in cell viability at 10 uM incubated for 3 hrs followed by washout cells cultured in glucose and FBS-free medium measured after 24 hrs by CCK8 assay; type: functional, cell-based
[2] = target: Nitric oxide synthase, inducible (Homo sapiens, UniProt P35228); test: Inhibition of iNOS (unknown origin) assessed as nitric oxide production at 1 uM by hemoglobin capture assay
[3] = Half life in Sprague-Dawley rat at 10 mg/kg, iv measured after 24 hrs by LC-MS/MS analysis; type: ADME, organism-based; conditions: in vivo
[4] = Tmax in Sprague-Dawley rat at 10 mg/kg, iv measured after 24 hrs by LC-MS/MS analysis; type: ADME, organism-based; conditions: in vivo
[5] = Apparent volume of distribution in Sprague-Dawley rat at 10 mg/kg, iv measured after 24 hrs by LC-MS/MS analysis; type: ADME, organism-based; conditions: in vivo, read-out: Vz
[6] = Clearance in Sprague-Dawley rat at 10 mg/kg, iv measured after 24 hrs by LC-MS/MS analysis; type: ADME, organism-based; conditions: in vivo
[7] = MRT (0 to t) in Sprague-Dawley rat at 10 mg/kg, iv measured after 24 hrs by LC-MS/MS analysis; type: ADME, organism-based; conditions: in vivo
[8] = MRT (0 to infinity) in Sprague-Dawley rat at 10 mg/kg, iv measured after 24 hrs by LC-MS/MS analysis; type: ADME, organism-based; conditions: in vivo
SH-SY5Y [9] = test: Neuroprotective effect in human SH-SY5Y cells assessed as reduction in OGD/R-induced damage by measuring increase in cell viability at 1 uM incubated for 3 hrs followed by washout cells cultured in glucose and FBS-free medium measured after 24 hrs by CCK8 assay; type: functional, cell-based
BV-2 = test: Neuroprotective effect in mouse BV-2 cells assessed as reduction in OGD/R-induced damage by measuring increase in cell viability at 10 uM incubated for 3 hrs followed by washout cells cultured in glucose and FBS-free medium measured after 24 hrs by CCK8 assay; type: functional, cell-based
SH-SY5Y [10] = test: Antioxidant activity in human SH-SY5Y cells assessed as reduction in OGD/R-induced ROS level at 1 uM incubated for 3 hrs followed by washout cells cultured in glucose and FBS-free medium measured after 24 hrs by DCFH-DA probe based fluorescence microscopy assay; type: functional, cell-based
SH-SY5Y [11] = test: Antioxidant activity in human SH-SY5Y cells assessed as reduction in OGD/R-induced LDH level at 1 uM incubated for 3 hrs followed by washout cells cultured in glucose and FBS-free medium measured after 24 hrs by colorimetric assay; type: functional, cell-based
SH-SY5Y [12] = test: […] effect in human SH-SY5Y cells assessed as reduction in OGD/R-induced caspase-3 activity using substrate GreenNuc Caspase-3 Substrate is a peptide DEVD coupled with a DNA green fluorescent dye at 1 uM incubated for 3 hrs followed by washout cells cultured in glucose and FBS-free medium measured after 24 hrs by […] assay; type: functional, cell-based
[13] = target: T1, Nitric oxide synthase 3 (Homo sapiens) (UniProt P29474); test: Inhibition of eNOS (unknown origin) assessed as nitric oxide production 1 uM by hemoglobin capture assay
T1 sequence (whole entry): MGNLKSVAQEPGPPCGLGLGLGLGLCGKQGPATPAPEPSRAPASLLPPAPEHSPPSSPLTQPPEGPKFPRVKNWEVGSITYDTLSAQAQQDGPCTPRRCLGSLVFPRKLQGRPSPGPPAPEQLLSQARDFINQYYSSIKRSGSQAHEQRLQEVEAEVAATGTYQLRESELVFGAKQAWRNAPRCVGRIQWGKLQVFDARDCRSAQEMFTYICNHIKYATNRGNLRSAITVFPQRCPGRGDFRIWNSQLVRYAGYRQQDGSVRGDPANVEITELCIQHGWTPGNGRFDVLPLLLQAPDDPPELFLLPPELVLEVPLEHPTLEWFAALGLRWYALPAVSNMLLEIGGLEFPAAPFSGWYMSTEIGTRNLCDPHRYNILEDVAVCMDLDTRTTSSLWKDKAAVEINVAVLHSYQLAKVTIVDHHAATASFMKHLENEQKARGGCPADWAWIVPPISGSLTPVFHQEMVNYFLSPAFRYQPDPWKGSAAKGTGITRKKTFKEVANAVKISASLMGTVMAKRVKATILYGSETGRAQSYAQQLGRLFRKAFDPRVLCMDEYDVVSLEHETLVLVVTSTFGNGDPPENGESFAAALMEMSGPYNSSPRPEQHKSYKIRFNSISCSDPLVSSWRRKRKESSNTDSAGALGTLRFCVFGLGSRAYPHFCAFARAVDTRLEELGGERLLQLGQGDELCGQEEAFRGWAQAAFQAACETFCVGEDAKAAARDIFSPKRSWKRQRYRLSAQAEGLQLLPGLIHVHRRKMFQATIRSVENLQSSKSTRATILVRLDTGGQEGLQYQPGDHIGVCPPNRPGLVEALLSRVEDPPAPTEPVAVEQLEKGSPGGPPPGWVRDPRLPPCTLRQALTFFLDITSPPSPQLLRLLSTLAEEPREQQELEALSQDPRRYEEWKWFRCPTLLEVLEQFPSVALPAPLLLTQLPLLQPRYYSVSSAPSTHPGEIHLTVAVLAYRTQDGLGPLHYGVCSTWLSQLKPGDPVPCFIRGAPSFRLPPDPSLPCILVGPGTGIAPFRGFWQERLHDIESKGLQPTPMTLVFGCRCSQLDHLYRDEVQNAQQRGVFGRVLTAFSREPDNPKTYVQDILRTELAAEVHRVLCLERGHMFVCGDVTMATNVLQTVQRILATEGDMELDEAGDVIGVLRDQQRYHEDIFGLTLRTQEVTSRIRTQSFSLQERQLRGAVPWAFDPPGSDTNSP

[14] = target: Nitric oxide synthase 1 (Homo sapiens) (UniProt P29475); test: Inhibition of nNOS (unknown origin) assessed as nitric oxide production 1 uM by hemoglobin capture assay
[15] = Stability in rat plasma assessed as half life; type: ADME, cell-free
[16] = Metabolic stability in rat liver microsomes assessed as half life; type: ADME, Microsome
[17] = Solubility of the compound by HPLC based dissolution test; type: physicochemical
[18] = Ratio of drug concentration male Sprague-Dawley rat brain to blood at 5 mg/kg, iv measured after 24 hrs by LC-MS/MS analysis; type: ADME, organism-based
Rattus norvegicus [19] = test: (§1) Anti-cerebral ischemia activity in rat tMCAO (transient middle cerebral artery occlusion) model assessed as reduction in cerebral infarct area at 9.61 mg/kg, iv treated after 2 hrs ischemia followed by reperfusion measured after 24 hrs of post-reperfusion by single-dose experiment; type: functional, organism-based; conditions: time 26.0 hrs
Rattus norvegicus [20] = test: as §1, with “24 to 72” for “24”, “TTC staining based multiple-dose” for “single-dose”; type: functional, organism-based; conditions: time 26-74 hrs
Rattus norvegicus [21] = test: as §1, with “measuring modified neurological severity score (mNSS) test based multiple-dose” for “single-dose”, “experiment relative to MCAO group” for “experiment”; type: functional, organism-based
Rattus norvegicus [22] = test: as §1, with “measuring turn left counts test based multiple-dose” for “single-dose”, “experiment relative to MCAO group” for “experiment”; type: functional, organism-based
Rattus norvegicus [23] = test: as §1, with “72” for “24”, “measuring modified neurological severity score (mNSS) test based multiple-dose” for “single-dose”, “experiment relative to MCAO group” for “experiment”; type: functional, organism-based
Rattus norvegicus [24] = test: as §1, with “72” for “24”, “measuring turn left counts test based multiple-dose” for “single-dose”, “experiment relative to MCAO group” for “experiment”; type: functional, organism-based
Rattus norvegicus [25] = test: (§2) Anti-cerebral ischemia activity in rat tMCAO (transient middle cerebral artery occlusion) model assessed as reduction in cerebral infarct area at 5 mg/kg, iv treated after 2 hrs ischemia followed by reperfusion measured after 24 hrs of post-reperfusion by single-dose experiment; type: functional, organism-based; conditions: time 26.0 hrs
Rattus norvegicus [26] = test: Anti-cerebral ischemia activity in rat tMCAO (transient middle cerebral artery occlusion) model assessed as reduction in cerebral infarct area in presence of 1400W at 5 mg/kg, iv treated after 2 hrs ischemia followed by reperfusion measured after 24 hrs of post-reperfusion by single-dose experiment; type: functional, organism-based; conditions: time 26.0 hrs
Rattus norvegicus [27] = test: as §2, with “24 to 72” for “24”, “TTC staining based multiple-dose” for “single-dose”; type: functional, organism-based; conditions: time 26-74 hrs
Rattus norvegicus [28] = test: Anti-cerebral ischemia activity in rat tMCAO (transient middle cerebral artery occlusion) model assessed as reduction in cerebral infarct area at 9.98 mg/kg, iv treated after 2 hrs ischemia followed by reperfusion measured after 24 hrs of post-reperfusion by single-dose experiment; type: functional, organism-based; conditions: time 26.0 hrs
[29] = Ratio of drug concentration male Sprague-Dawley rat brain to blood at 3.4 mg/kg, iv measured after 24 hrs by LC-MS/MS analysis; type: ADME, organism-based
Rattus norvegicus [30] = test: Anti-cerebral ischemia activity in rat tMCAO (transient middle cerebral artery occlusion) model assessed as reduction in cerebral infarct area at 6.58 mg/kg, iv treated after 2 hrs ischemia followed by reperfusion measured after 24 hrs of post-reperfusion by single-dose experiment; type: functional, organism-based; conditions: time 26.0 hrs
Rattus norvegicus [31] = test: Anti-cerebral ischemia activity in rat tMCAO (transient middle cerebral artery occlusion) model assessed as reduction in cerebral infarct area in presence of NBP at 6.58 mg/kg, iv treated after 2 hrs ischemia followed by reperfusion measured after 24 hrs of post-reperfusion by single-dose experiment; type: functional, organism-based; conditions: time 26.0 hrs

Chain of Nitric oxide synthase, inducible (P35228 whole entry): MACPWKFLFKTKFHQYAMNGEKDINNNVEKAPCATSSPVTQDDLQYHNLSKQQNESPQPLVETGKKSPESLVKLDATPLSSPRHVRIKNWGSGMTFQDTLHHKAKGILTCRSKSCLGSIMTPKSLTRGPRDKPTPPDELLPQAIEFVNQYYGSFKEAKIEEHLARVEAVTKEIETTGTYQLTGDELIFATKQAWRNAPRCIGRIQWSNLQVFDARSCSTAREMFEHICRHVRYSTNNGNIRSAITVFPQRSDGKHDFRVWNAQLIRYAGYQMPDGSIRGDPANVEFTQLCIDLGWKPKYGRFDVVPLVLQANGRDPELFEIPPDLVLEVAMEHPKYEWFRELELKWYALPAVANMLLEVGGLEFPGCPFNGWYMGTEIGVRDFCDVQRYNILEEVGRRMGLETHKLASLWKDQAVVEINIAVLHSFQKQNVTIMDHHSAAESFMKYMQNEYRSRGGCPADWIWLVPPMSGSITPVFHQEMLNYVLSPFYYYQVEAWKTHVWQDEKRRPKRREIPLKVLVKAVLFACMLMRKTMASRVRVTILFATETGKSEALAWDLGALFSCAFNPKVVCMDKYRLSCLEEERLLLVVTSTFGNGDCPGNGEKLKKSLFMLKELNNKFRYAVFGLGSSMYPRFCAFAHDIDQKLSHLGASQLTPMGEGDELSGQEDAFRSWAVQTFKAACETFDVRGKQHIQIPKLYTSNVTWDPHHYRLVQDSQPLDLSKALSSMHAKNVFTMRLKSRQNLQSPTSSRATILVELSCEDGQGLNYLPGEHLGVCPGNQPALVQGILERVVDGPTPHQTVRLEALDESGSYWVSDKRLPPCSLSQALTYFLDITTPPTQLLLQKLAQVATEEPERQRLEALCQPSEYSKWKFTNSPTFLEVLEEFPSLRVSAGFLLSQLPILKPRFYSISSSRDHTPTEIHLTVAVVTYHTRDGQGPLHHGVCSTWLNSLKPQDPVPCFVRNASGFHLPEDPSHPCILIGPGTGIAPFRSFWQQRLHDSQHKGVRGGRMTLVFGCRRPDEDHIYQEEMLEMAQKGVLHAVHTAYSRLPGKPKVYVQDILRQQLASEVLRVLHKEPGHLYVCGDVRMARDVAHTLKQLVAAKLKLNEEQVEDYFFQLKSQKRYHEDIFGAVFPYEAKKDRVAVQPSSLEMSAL
Chain of Nitric oxide synthase 1 (Homo sapiens) (P29475 whole entry): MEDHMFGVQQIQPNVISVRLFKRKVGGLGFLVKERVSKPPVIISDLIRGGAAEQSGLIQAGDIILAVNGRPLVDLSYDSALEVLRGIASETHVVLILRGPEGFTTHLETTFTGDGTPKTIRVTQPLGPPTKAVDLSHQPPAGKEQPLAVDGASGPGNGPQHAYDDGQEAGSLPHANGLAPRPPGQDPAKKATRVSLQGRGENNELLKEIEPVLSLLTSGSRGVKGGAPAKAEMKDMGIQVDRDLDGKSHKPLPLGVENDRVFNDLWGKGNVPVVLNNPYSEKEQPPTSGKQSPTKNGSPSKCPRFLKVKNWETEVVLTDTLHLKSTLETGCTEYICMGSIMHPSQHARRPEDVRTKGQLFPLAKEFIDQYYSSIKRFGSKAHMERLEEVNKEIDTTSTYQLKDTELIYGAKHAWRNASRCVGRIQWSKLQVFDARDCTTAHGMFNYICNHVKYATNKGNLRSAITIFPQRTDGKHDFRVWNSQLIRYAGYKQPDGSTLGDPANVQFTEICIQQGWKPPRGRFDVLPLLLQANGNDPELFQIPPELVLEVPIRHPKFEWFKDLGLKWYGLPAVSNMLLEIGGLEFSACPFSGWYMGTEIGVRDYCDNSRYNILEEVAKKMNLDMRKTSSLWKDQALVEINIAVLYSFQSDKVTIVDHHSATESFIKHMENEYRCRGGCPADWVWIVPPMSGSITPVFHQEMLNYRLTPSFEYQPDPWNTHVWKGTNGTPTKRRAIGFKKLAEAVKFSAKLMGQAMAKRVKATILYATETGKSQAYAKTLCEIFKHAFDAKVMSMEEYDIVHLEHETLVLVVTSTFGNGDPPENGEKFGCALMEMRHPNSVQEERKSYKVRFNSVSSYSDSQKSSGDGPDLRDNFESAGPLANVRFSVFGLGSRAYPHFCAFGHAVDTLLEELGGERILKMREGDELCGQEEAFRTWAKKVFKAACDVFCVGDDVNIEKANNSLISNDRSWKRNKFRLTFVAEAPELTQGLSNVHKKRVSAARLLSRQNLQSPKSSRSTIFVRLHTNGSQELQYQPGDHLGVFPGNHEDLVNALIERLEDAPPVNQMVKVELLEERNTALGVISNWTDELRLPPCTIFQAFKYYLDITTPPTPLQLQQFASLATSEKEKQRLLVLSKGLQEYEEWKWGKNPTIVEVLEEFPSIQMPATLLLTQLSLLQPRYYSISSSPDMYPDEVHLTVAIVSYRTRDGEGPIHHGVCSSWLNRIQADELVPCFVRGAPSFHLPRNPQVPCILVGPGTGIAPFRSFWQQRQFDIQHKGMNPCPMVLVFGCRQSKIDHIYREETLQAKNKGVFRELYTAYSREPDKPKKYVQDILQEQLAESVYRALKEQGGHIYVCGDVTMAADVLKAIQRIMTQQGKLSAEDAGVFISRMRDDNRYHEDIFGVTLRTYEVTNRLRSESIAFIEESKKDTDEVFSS

| Structure (SMILES) | Activity (SH-SY5Y [1]) | IC50 [2] [nM] | Tmax [4] [min] | Vd [5] [L/kg] | CL [6] [mL/min/kg] | MRT last at 24 h [7] [h] | MRT inf [8] [h] | Activity (SH-SY5Y [9]) | Activity (BV-2) | Activity (SH-SY5Y [10]) | Activity (SH-SY5Y [11]) | Activity (SH-SY5Y [12]) | Activity [13] | solubility [17] [mg/mL] | other results |
| --- | --- | --- | --- | --- | --- | --- | --- | --- | --- | --- | --- | --- | --- | --- | --- |
| CCCCC1OC(=O)c2cc(NCc3cccc(NC(C)=N)c3)ccc21 (centres undefined) | Active | 275 |  |  |  |  |  |  |  |  |  |  |  |  |  |
| CCCCC1OC(=O)c2cc(NCc3cccc(CNC(C)=N)c3)ccc21 (centres undefined) | Active | 171 | 4.98 | 32.4 | 71.33 | 1.62 | 1.91 | Active; Compound Demonstrating Comparable Protective Effects To Nbp And 1400W | Active; Compound Exhibit Similar Protective Effects As Nbp And 1400W | Active | Active | Active | inactive | 30 (≈ 82.1 mM) | half-life [3]: 5.21 h; inhibition [14]: 3.64%; half-life [15]: 23 h; half-life [16]: 2 h; BBR [18]: 27.36%; Activity (Rattus norvegicus [19]): Active; Activity (Rattus norvegicus [20]): Active; Efficacy Of Compound Superior Than Nbp Group; Activity (Rattus norvegicus [21]): Active; Activity (Rattus norvegicus [22]): Active; Activity (Rattus norvegicus [23]): Active; Activity (Rattus norvegicus [24]): Active |
| CCCCC1OC(=O)c2ccccc21 (racemic) [RAC-3-N-BUTYLPHTHALIDE] |  |  |  |  |  |  |  |  |  | Active | Active | Active |  | 0.25 (≈ 1.31 mM) | Activity (Rattus norvegicus [25]): Active; Activity (Rattus norvegicus [26]): Active; Activity (Rattus norvegicus [27]): Active |
| CCCCC1OC(=O)c2cc(NC(=O)c3cccc(CNC(C)=N)c3)ccc21 (centres undefined) | Active | 245 |  |  |  |  |  | Active; Compound Demonstrating Comparable Protective Effects To Nbp And 1400W | Active; Compound Exhibit Similar Protective Effects As Nbp And 1400W |  | Active |  |  |  | Activity (Rattus norvegicus [28]): Active |
| CC(=N)NCc1cccc(CN)c1 [1400W] |  |  | 4.98 | 21.7 | 90.12 | 0.96 | 1.11 |  |  | Active | Active | Active | inactive |  | BBR [29]: 10.96%; Activity (Rattus norvegicus [30]): Active; Activity (Rattus norvegicus [31]): Active |
| CCCCC1OC(=O)c2cc(NC(=O)c3cccc(NC(C)=N)c3)ccc21 (centres undefined) | Active | 474 |  |  |  |  |  |  |  |  |  |  |  |  |  |
